Measured values published in patent EP4711368A1 (priority 2023, dated 2024).
Like-named read-outs stand apart in the source and are kept apart here.

Experiments:
SD rats [1] = test: TC-ED50 after single intravenous injection (Table 2; method not described); format: in vivo
SD rats [2] = test: animal or person; format: in vivo; conditions: iv; for Minimal effective analgesic dose / Minimal effective anesthetic dose / Onset time / Righting feflex duration / Sedation Duration: rat, in vivo; for minimal effective dose: Rattus norvegicus
SD rats [3] = conditions: rat, in vivo; for MLD: iv
[4] = read-out: Minimal effective anesthetic dose
[5] = read-out: Minimal effective analgesic dose

SMILES | TC-ED50 (SD rats [1]) [mg/kg] | Minimal effective analgesic dose (SD rats [2]) [mg/kg] | Minimal effective anesthetic dose (SD rats [2]) [mg/kg] | Onset time (SD rats [2]) [min] | Righting feflex duration (SD rats [2]) [min] | Sedation Duration (SD rats [2]) [min] | TI (SD rats [3]) | MLD (SD rats [3]) [mg/kg] | minimal effective dose (SD rats [2]; [4]) [mg/kg] | TI (SD rats [3]; SD) | MLD (SD rats [3]; SD) [mg/kg] | minimal effective dose (SD rats [2]; [5]) [mg/kg]
CCC(=O)OCC1N=C(c2ccccn2)c2cc(Br)ccc2-n2c(C)cnc21 (stereo not drawn) [Compound 98] | 22.0 | 20 | 5.0 | 0.5 to 0.6 | 11.6 to 17.4 | 72.5 to 208.7 | 6.0 | 30 | – | – | – | –
CC(C)OC(=O)OCC1N=C(c2ccccn2)c2cc(Br)ccc2N(C)C1=O (stereo not drawn) [Compound 55] | 15.4 | 20 | 1.0 | 0.2 to 0.7 | 2.4 to 25.4 | 11.3 to 141.0 | >20. 0 | >20 | – | – | – | –
Cc1cnc2n1-c1ccc(Br)cc1C(c1ccccn1)=NC2COC(=O)C(C)C (stereo not drawn) [Compound 97] | 9.9 | 10 | 2.0 | 0.4 to 0.7 | 0.7 to 129.9 | 16.9 to 187.5 | 15.0 | 30 | – | – | – | –
CC(C)OC(=O)OC1N=C(c2ccccn2)c2cc(Br)ccc2N(C)C1=O (stereo not drawn) [Compound 166] | – | 20 | 20.0 | 0.4 | 20.7 | 64.0 | 2.0 | 38.9 | – | – | – | –
CN1C(=O)N(CCc2cccs2)N=C(c2ccccn2)c2cc(Br)ccc21 [Compound 284] | – | – | – | 0.2 | 20 | 70.72 | – | – | 40 | >1 | >40 | –
Cc1cnc2n1-c1ccc(Br)cc1C(c1ccccn1)=NN2CC(=O)OC1(C)COC1 [Compound 314] | – | – | – | 0.15 to 0.67 | 1.27 to 1.40 | 11.02 to 18.83 | – | – | 10 | 4 | 40 | –
Cc1cnc2n1-c1ccc(Br)cc1C(c1ccccn1)=NC2CCC(=O)OC1COC1 (stereo not drawn) [Compound 4] | – | – | 15.0 | 0.2 to 0.4 | 1.1 to 3.5 | 4.2 to 10.8 | >1.5 | >22.5 | – | – | – | –
Cc1cnc2n1-c1ccc(Br)cc1C(c1ccccn1)=NN2CCOC(=O)C(C)C [Compound 315] | – | – | – | 0.38 to 0.75 | 0.58 to 2.35 | 14.12 to 24.55 | – | – | 3.75 | 2.7 | 10 | 30
CCC(C)OC(=O)CN1N=C(c2ccccn2)c2cc(Br)ccc2N(C)C1=O (stereo not drawn) [Compound 241] | – | – | – | 0.43 to 0.90 | 3.47 to 30.13 | 18.10 to 73.95 | – | – | 7.5 | 4 | 30 | –
C#C[C@@H](C)OC(=O)CN1N=C(c2ccccn2)c2cc(Br)ccc2-n2c(C)cnc21 [Compound 312] | – | – | – | 0.15 to 0.52 | 2.97 to 38.32 | 138.40 to 240 | – | – | 10 | 4 | 40 | 10
CCC(=O)OCC1N=C(c2ccccn2)c2cc(Br)ccc2N(C)C1=O (stereo not drawn) [Compound 40] | – | – | 5.0 | 0.2 to 0.5 | 1.3 to 17.2 | 40.2 to 364.0 | 8.0 | 40 | – | – | – | –
CC(=O)OCCC1N=C(c2ccccn2)c2cc(Br)ccc2-n2c(C)cnc21.O=S(=O)(O)c1ccccc1 (stereo not drawn) [Compound 145D] | – | – | 7.5 | 0.2 to 0.5 | 1.7 to 19.9 | 23.0 to 63.0 | >2.3 | >16.9 | – | – | – | –
CCC(CC)OC(=O)CN1N=C(c2ccccn2)c2cc(Br)ccc2N(C)C1=O [Compound 247] | – | – | – | 0.28 | 30.15 | 88.25 | – | – | 20 | 1.5 | 30 | 20
CN1C(=O)N(CC(=O)OC2COC2)N=C(c2ccccn2)c2cc(Br)ccc21 [Compound 245] | – | – | – | 0.15 to 0.67 | 1.27 to 1.40 | 11.02 to 18.83 | – | – | 10 | 4 | 40 | 20
CN1C(=O)C(CCO)N=C(c2ccccn2)c2cc(Br)ccc21 (stereo not drawn) [Compound 117] | – | – | 25.0 | 0.4 to 0.5 | 2.7 to 3.8 | 14.6 to 32.0 | 1.6 | 40 | – | – | – | –
CCOC(=O)CN1N=C(c2ccccn2)C(Br)=CN(C)C1=O [Compound 346] | – | – | – | 0.57 | 2.63 | 45.10 | – | – | 18.4 | >1 | >18.4 | 18.4
CN1C(=O)C(CCC(=O)OC2(C)COC2)N=C(c2ccccn2)c2cc(Br)ccc21 (stereo not drawn) [Compound 14] | – | – | 0.5 | 0.2 to 0.7 | 0.6 to 3.2 | 3.5 to 7.0 | >2 | >1 | – | – | – | –
C=CC(C)OC(=O)CN1N=C(c2ccccn2)c2cc(Br)ccc2N(C)C1=O (stereo not drawn) [Compound 248] | – | – | – | 0.15 to 0.52 | 2.97 to 38.32 | 138.4 to 240 | – | – | 10 | 4 | 40 | 20
CC(=O)OC1N=C(c2ccccn2)c2cc(Br)ccc2N(C)C1=O (stereo not drawn) [Compound 164] | – | – | 5.0 | 0.2 to 1.0 | 1.2 to 50.4 | 116.7 to 284.0 | 8.0 | 40 | – | – | – | –
CC(=O)OCCC1N=C(c2ccccn2)c2cc(Br)ccc2-n2c(C)cnc21 (stereo not drawn) [Compound 145] | – | 20 | 5.0 | 0.2 to 0.4 | 0.5 to 14.3 | 33.1 to 88.2 | 6.0 | 30 | – | – | – | –
CC(OC(=O)CN1N=C(c2ccccn2)c2cc(Br)ccc2N(C)C1=O)C1CC1 (stereo not drawn) [Compound 250] | – | – | – | 0.53 | 13.62 | 21.55 | – | – | 20 | >1 | – | –
CCN1C(=O)N(CC(=O)OC(C)C)N=C(c2ccccn2)c2cc(Br)ccc21 [Compound 256] | – | – | – | 0.17 to 0.50 | 0.32 to 26.03 | 13.38 to 59.65 | – | – | 5 | 6 | 30 | 10
Cc1cnc2n1-c1ccc(Br)cc1C(c1ccccn1)=NC2COC(=O)c1ccccc1 (stereo not drawn) [Compound 191] | – | 20 | 5.0 | 0.45 to 0.53 | 0.7 to 12.8 | 53.5 to 155.3 | 6.8 | 34.0 | – | – | – | –
